The results in this text go back to the NIST ThermoML archive (doi:10.1021/je300146k).

± gives the expanded uncertainty stated by the source.

As usually defined, the mass density is mass per unit of volume.

The conditions of this series: 298.15 K; 101.33 kPa; Liquid; Vibrating tube method.
Take `OCc1ccccc1` [benzenemethanol]: the mass density turned out to be 1043.53 ± 0.29 kg/m3. As for `CCCCCCCCCC` [decane], the mass density stood at 726.43 ± 0.26 kg/m3. Take `CCCCCCCCCCCC` [dodecane]: the mass density was found to be 741.54 ± 0.58 kg/m3.

For `CCCCCCC` [heptane], the mass density was 679.71 ± 0.21 kg/m3. Regarding `CCCCCCCC` [octane], the mass density came out at 698.76 ± 0.26 kg/m3.

As to `CCCCCCCCCCCCCC` [tetradecane], the mass density turned out to be 759.27 ± 0.26 kg/m3.
